Results: publication PMC9607246 (Pharmaceutics, 2022)
Values after ≈ are worked out from the molar mass of the structure shown. Like-named read-outs stand apart in the source and are kept apart here.

Columns and labels:
[1] = tested on: Staphylococcus aureus; conditions: total AUC, MIC equal to 1 mg/L, cited from earlier work
[2] = tested on: Pathogenic micro-organism (S. aureus, S. epidermidis, S. hominis, E. fecalis, S. sacrophyticus, S. lugdunensis); type: cell-based; conditions: e-test; median (IQR) of pathogens of the 46 patients (36/46 identified); mg/L
Protocol: Demographic (age, body weight and height), treatment (dose and co-administered medications) and clinical data (microbiological data, analytical and disease covariates) were collected at patient enrolment. Serum creatinine and serum albumin were measured on the day (if not available, the nearest day) of measurement of the drug concentration.

[3] = tested on: human plasma proteins
Excerpt: (§1) This model assumes that Cbound is directly proportional to Cfree with no saturable mechanism. • Non-linear binding model with single site binding [38, 39]: (2) Ctotal=Cfree+Bmax·Cfree/(KD+Cfree) where Bmax (mg/L) represents the maximal binding capacity and KD (mg/L) is the equilibrium dissociation constant. • Non-linear binding model with multiple site binding [38, 40, 41] (3) Ctotal=Cfree+∑^ Bmax,i·Cfree/(KD,i+Cfree) where Bmax,i and KD,i represent the binding-dissociation parameters of the i th binding site of plasma proteins.

[4] = tested on: plasma proteins (albumin and α-glycoprotein); conditions: cited from earlier work
[5] = excretion primarily by the kidneys; cited from earlier work
[6] = tested on: creatine phosphokinase elevation; conditions: in vivo; cited from earlier work
Protocol: The probability of Cmin ≥24.3 mg/L at 24 h was calculated for each scenario.

[7] = Population pharmacokinetic model of daptomycin in patients with normal and impaired renal function (NONMEM)
Protocol: A prospective multi-center study in patients admitted to the General University Hospital of Castellón (Castellón, Spain) and the Arnau de Vilanova Hospital of Valencia (Valencia, Spain) was conducted. […] The exclusion criteria were patients with renal replacement therapy.
Five serial blood samples were collected from a peripheral vein from day 4 (steady state) at the pre-dose, 0.5, 1–2, 4–10 h after the infusion ended and before the next dose.
Precision and accuracy were assessed by performing replicate analysis of quality control samples against calibration standards. Intra- and inter-assay coefficients of the variation were always <10%.
All data analyses were performed based on the population approach with the software NONMEM® (Version 7.4; Icon Inc, PA, USA). The population PK parameters were estimated using the Stochastic Approximation of the Expectation Maximization and the Importance Sampling Estimation method. The Perl-Speaks-NONMEM program (version 4.8.1, Department of Pharmaceutical Biosciences, Uppsala University, Sweden) [33] and Pirana software (version 2.9.6, Pirana Software & Consulting BV) were used for model development and evaluation. Data processing and graphical analysis were conducted using R (version 4.0.0, http://cran.r-project.org, accessed on 14 April 2020) and R-Studio (version v2021.09.0+354).
as §1
Inter-individual variability (IIV) associated with the PK model parameters was modeled exponentially, and the residual unexplained variability (RUV) was explored using the additive error model on the logarithmic scale. The significance of the non-diagonal elements of the Ω variance-covariance matrix was evaluated.
Once the base model was selected, a graphical exploration of the correlations between the PK parameters (when eta-shrinkage was less than 35%) [42] and covariates was performed. The continuous covariate included age, height, body weight, serum creatinine, creatinine clearance, and albumin. The categorical covariates were gender and statin co-administration. A numerical evaluation of the parameter-covariate relationship was performed manually in a univariate testing.
The model selection was based on the physiological and pharmacological rationale with the principle of parsimony [43]. A decrease in 3.84 points of the objective function value (OFV) provided by NONMEM® between two nested models differing in one parameter was considered significant at the 5% level, together with the visual inspection of the goodness of fit (GOF) [44] and normalized prediction distribution error (NPDE) plots [45].
A model evaluation [46, 47] was performed through prediction-corrected visual predictive checks (pc-VPC), [48] and a non-parametric bootstrap (n = 1000) was conducted to assess the statistical significance of the final parameter estimates.

[8] = non-parametric bootstrap n = 1000, median
[9] = population estimate, final model, unbound daptomycin, 46 patients

## CCCCCCCCCC(=O)N[C@@H](Cc1c[nH]c2ccccc12)C(=O)N[C@H](CC(N)=O)C(=O)N[C@@H](CC(=O)O)C(=O)N[C@@H]1C(=O)NCC(=O)N[C@@H](CCCN)C(=O)N[C@@H](CC(=O)O)C(=O)N[C@H](C)C(=O)N[C@@H](CC(=O)O)C(=O)NCC(=O)N[C@H](CO)C(=O)N[C@@H]([C@H](C)CC(=O)O)C(=O)N[C@@H](CC(=O)c2ccccc2N)C(=O)O[C@@H]1C [daptomycin]
[1]; ref 19
  AUC with bactericidal effect: 761 mg·h/L
  AUC with bacteriostatic effect: 465 mg·h/L
[1]; ref 24, 51, 52
  AUC with bactericidal effect: 666 mg·h/L
[2]
  MIC micro-organism: 0.5 (0.25, 0.5)
[3]; in vivo
  Bmax (maximal binding capacity): 160 mg/L
  Bmax, bootstrap median: 157 mg/L
[3]; [8]
  KD, bootstrap median: 3.61 µg/mL (≈ 2.23 µM)
[3]; population estimate, single-site non-linear binding model, estimated from total concentrations, no free concentrations measured
  KD (equilibrium dissociation constant): 3.56 µg/mL (≈ 2.2 µM)
[4]
  free fraction: around 10%
  reversibly bound to albumin and α-glycoprotein: 90%
[5]
  eliminated in urine: 54–78%
[6]
  trough level (Cmin) associated with a 50% probability of creatine phosphokinase elevation: ≥ 24300 ng/mL
[7]; [8]
  CL, bootstrap median: 7.01 L/h
  Q, bootstrap median: 1.93 L/h
  V1, bootstrap median: 0.97 L
[7]; [9]
  Q (intercompartmental clearance): 1.96 L/h
  V1 (apparent volume of distribution of the unbound central compartment): 0.95 L
